Experiment [1] deals with patients with R/R myelofibrosis. The experiment is described as follows: mRNA expression in cells isolated from treated patients with R/R myelofibrosis. Format: in vivo, human. Particulars: 120 mg or 240 mg for 5 or 7 days, C1D1 pre-dose vs C1D5. How it is done:
Treatment of patients with the compound of Formula (I) induces p21, Bax and Puma expression in vivo in patients with R/R myelofibrosis or R/R AML. mRNA expression in cells isolated from patients was evaluated pre-dosing on day 1 and 24 hours after the first course of treatment with the compound of Formula (I) in patients with R/R myelofibrosis (FIG. 7(A)). The compound of Formula (I) is administered at 120 mg for 7 days for Cohort 1, 240 mg for 7 days for Cohort 2, 240 mg for 7 days for Cohort 3, and 240 mg for 5 days for Cohort 4. Samples taken at pre-dose on Cycle 1, Day 1 (C1D1) and Cycle 1, Day 5 (C1D5).

The test system of experiment [2] is HEL-92 cells (TP53 mutant). The experiment in a line: Bcl-2 family protein expression in HEL-92 cells, intracellular flow cytometry. It is filed as cell-based. Particulars: 72 hours. How it is done: (§1) The effect of the compound of Formula (I) on inducing apoptosis along with the expression of anti-apoptotic and pro-apoptotic protein expression in the MV-411 AML cell was assessed. […] Molecular Cancer Therapeutics. 2015 Mar. 1; 14(3):649-58. After 72 hours of culture with the compound of Formula (I), MV-411 (TP53 wt) and HEL-92 cells (TP53 mutant) were stained with antibodies against various Bcl-2 family proteins and data acquired using intracellular flow cytometry (FIG. 5(B)).

The test system of experiment [3] is MV-411 AML cell line (TP53 wild-type). The experiment is described as follows: Bcl-2 family protein expression in MV-411 AML cells, intracellular flow cytometry. Particulars: MV-411 cells, 72 hours, above the concentration to induce cell stasis. Format: cell-based. Here is the method:
as §1
A general note: In flow cytometry, cells or beads pass a laser one at a time.

Experiment [4] deals with UKE-1 myelofibrosis cell line (TP53 wild-type). The experiment in a line: Pro-apoptotic protein expression in UKE-1 myelofibrosis cell line, intracellular flow cytometry. It is filed as cell-based. Particulars: UKE-1 cells, 2.5 pM, 24, 48 and 72 hours, time-dependent. How it is done: The compound of Formula (I) induces Bak, Bax and BIM expression in a myelofibrosis cell line. The UKE-1 myelofibrosis cell line (TP53 wild-type) was cultured for 24, 48 and 72 hours with 2.5 pM of compound (equivalent to levels observed in vivo following administration in patients) and stained with antibodies against various pro-apoptotic protein using intracellular flow cytometry techniques. […] The upper line is cells treated with the compound of Formula (I) while the lower line is a control (no treatment).

A further experiment relates to CLL tumor cells. The experiment in a line: p53 and Bcl-2 family protein expression and apoptosis (cPARP+) in patient CLL tumor cells treated ex vivo, intracellular flow cytometry. It is filed as cell-based, human. Particulars: CLL tumor cells on HS-5 stromal cells, 24 hours. Here is the method:
The effect of the compound of Formula (I) on the expression of p53 along with anti-apoptotic and pro-apoptotic proteins was assessed in tumors cells isolated from patients diagnosed with CLL. Blood samples were collected prior to the patient receiving any treatment. CLL tumor cells were isolated and incubated on HS-5 stromal cells for 24 hours and then treated with the compound of Formula (I) for 24 hours. p53 and Bcl-2 family proteins were measured by intracellular flow cytometry and shown as median fluorescent intensity (MFI). The percent cPARP+ is shown above the level of basal spontaneous apoptosis. CLL tumor cells were cultured on HS-5 stromal cells were then treated with an increasing concentrations of the compound of Formula (I) for 24 hours. The result was an increase in intracellular P53 levels along with a decrease in anti-apoptotic Bcl-XL and Mcl-1 levels, and an increase in pro-apoptotic Bax.

A further experiment relates to patients with R/R AML. The experiment in a line: Gene expression in PBMC from treated patients with R/R AML. It is filed as in vivo, human. How it is done:
For patients with R/R AML, the compound of Formula (I) was administered at 120 mg (n=3), 180 mg (n=2), 240 mg (n=8), or 360 mg (n=4) daily for QD for seven days in dose-escalation phase, with different ‘off-treatment’ duration depending on cohort assignments. Samples taken at pre-dose on Cycle 1, Day 1 (C1D1) and Cycle 1, Day 5 (C1D5).
Treatment of patients with R/R AML with the compound of Formula (I) induces expression of genes involved in the Bcl-2 apoptotic pathway. […] FIG. 8 illustrates induced expression of Bcl-2 genes in PBMC following treatment of R/R AML patients with the compound of Formula (I). Eighteen genes were included in analysis: BAD, BAX, BCL2L1, MCL1, BCL2, BID, CAPN2, CASP10, CASP3, CASP7, CASP8, CASP9, TNFRSF10A, TNFRSF10B, TP53, PUMA, NOXA and STAT3. Experimental data was obtained similar to the method set forth in Example 4.

Where [5] appears, read: 120-360 mg QD for seven days, C1D1 pre-dose vs C1D5.

In the case of `CC(C)[C@@H](CS(=O)(=O)C(C)C)N1C(=O)[C@@](C)(CC(=O)O)C[C@H](c2cccc(Cl)c2)[C@H]1c1ccc(Cl)cc1` [Formula (I), 2-((3R,5R,6S)-5-(3-chlorophenyl)-6-(4-chlorophenyl)-1-((S)-1-(isopropylsulfonyl)-3-methylbutan-2-yl)-3-methyl-2-oxopiperidin-3-yl) acetic acid], in experiment [1], the “expression of Bax (mRNA)” value is listed as “increased expression” and the “expression of p21 (mRNA)” value was “increased expression”. In addition, the “changes in Bcl-2 family proteins” value in experiment [2] is listed as “no changes”. Also, in experiment [3], the “anti-apoptotic Bcl-2 family proteins” value is listed as “decrease”, the “pro-apoptotic effector protein Bak” value is “increase” and the “pro-apoptotic effector protein Bax” value is given as “increase”. In experiment [4], the “protein expression of BIM” value is “induced protein expression”, the “protein expression of Bak” value is “induced protein expression” and the “protein expression of Bax” value is “induced protein expression”. Further, in the experiment on CLL tumor cells, the “expression of anti-apoptotic protein Bcl-2” value is “decreased expression” and the “expression of pro-apoptotic protein Bak” value is “increased expression”. Also, the “cell apoptosis (percent cPARP+ above basal spontaneous apoptosis)” value with CLL tumor cells (increasing concentrations) is “increased cell apoptosis in a dose-dependent manner”. In addition, in the experiment with CLL tumor cells (increasing concentrations, MFI), the “anti-apoptotic Bcl-XL levels” value is “decrease”, the “anti-apoptotic Mcl-1 levels” value is recorded as “decrease”, the “intracellular P53 levels” value is reported as “increase” and the “pro-apoptotic Bax levels” value is listed as “increase”. Moreover, in the experiment on patients with R/R AML (setting [5]), the “expression of Bax (gene expression)” value is “increased expression”, the “expression of Puma (gene expression)” value is “increased expression” and the “expression of p21 (gene expression)” value is on record as “increased expression”. Besides, the “expression of genes involved in the BCL2 family/apoptosis pathway” value in the experiment with patients with R/R AML (cells isolated from peripheral blood (PBMC), eighteen genes) was “induced the expression”.

The record behind these values is US20250134876A1, “METHODS OF TREATING A CANCER OVEREXPRESSING ONE OR MORE BCL-2 FAMILY PROTEINS” (Kartos Therapeutics, Inc., priority 2021, published 2025).
